Where two headings read alike, the source gives them in different places.
Assays:
[1] = tested on: Dunning AT-1 hormone-refractory prostate cancer tumor
Excerpt: (§1) The Dunning prostate cancer cell-line, AT-1, is a completely hormone-refractory tumor. It lacks measurable quantities of receptors for androgens as well as estrogens. As a result, the clinical behavior of this tumor is not influenced by the presence or absence of sex steroids. The doubling time of the tumor is 2.5 days, which makes it one of the most […] of all hormone-refractory Dunning tumors. It has a low (less than 5%) tendency for metastasis. The Dunning tumors are suitable for evaluating immunologic experiments with prostate cancer as they grow in immunocompetent animals.
(§2) Biopsies from excised tumors where investigated microscopically using the TUNEL-technique. Tumor biopsies were investigated with immuno-cytochemistry and antibodies for macrophages and T-lymphocytes.
In the second experiment, rats were treated as in experiment 1, but tumor size was not allowed to exceed 10 mm in diameter. This experiment was made to further evaluate the influence of tumor size on the outcome of treatment.
Animals were divided in four groups:
(§3) Group 4 animals served as tumor-bearing controls.
After animals had been sacrificed, freshly frozen tumor samples were examined for apoptosis using the TUNEL technique.

[2] = tested on: Dunning AT-1 hormone-refractory prostate cancer tumor; test: Experiment 1: Dunning AT-1 tumor transplanted subcutaneously in rats, tumors about 17 mm at start of treatment; type: in vivo, Copenhagen-Fisher male rat
Excerpt: as §1, §2
In this experiment Dunning AT-1 tumor was passed through two Copenhagen-Fisher male rats and then transplanted in a single piece, approximately 10 mm^3, which was placed subcutaneously on a third Copenhagen-Fisher male rat's dorsal side. Tumors were allowed to grow to approximately 17 mm in diameter before treatment started. Four groups of six rats each were used.
Freund's complete adjuvant is used to potentiate immune reactivity and to trigger a T-cell response.
Group 3 animals received only complete Freund's adjuvant, 0.1 mL intra-tumorally.
as §3
Tumors were measured by slide caliper at the onset of experiment. This was repeated at the end of experiment when animals were sacrificed, tumors excised, and tumor weight was noted.

[3] = tested on: myeloid cell line; details: in vitro; cited from earlier work
[4] = tested on: breast cancer cell lines; details: in vitro; cited from earlier work
[5] = versus control, end of experiment 1

Row | SMILES | mean tumor weight ([1]; single injection of 80 mg βAED, control 5.8 g) | tumor growth observed macroscopically ([1]; single injection, αAED animals sacrificed after 96 hours) | mean tumor weight ([2]; end of experiment 1) | median tumor weight ([2]; end of experiment 1) | Tumor Diameter (mm) ([2]; end of experiment 1 (sacrifice after 3 weeks)) | Decrease in Tumor Size (mm) [2, 5] | Percent Reduction [2, 5] | time for which tumor growth was arrested following treatment ([1]; single injection of 10 mg αAED) | apoptotic effect [3] | apoptotic effect [4]
1 | C[C@]12CC[C@H]3[C@@H](CC=C4C[C@@H](O)CC[C@@]43C)[C@@H]1CC[C@@H]2O [βAED, Δ5-androstene-3-β, 17β-diol] | 2.9 g | clear retardation of tumor growth | 11.6 g | 10 g | 11.6 mm | 7.6 mm | 39.58% |  |  | 
2 | C[C@]12CC[C@H]3[C@@H](CC=C4C[C@@H](O)CC[C@@]43C)[C@@H]1CC[C@H]2O [αAED, Δ5-androstene-3-β, 17α-diol] |  |  |  |  |  |  |  | at least 96 hours | apoptotic effect | apoptotic effect
